# In patent US20120020915A1, “Compounds and Methods for Treating Cancer and Diseases of the Central Nervous System” (QUEENS UNIVERSITY AT KINGSTON, priority 2007, published 2012):
# Structures can show the parent of a compound that is named as a salt. Where two headings read alike, the source gives them in different places.
# How the values were obtained:
# HO-2 (rat brain) = target: T1, HO-2 (rat brain) (Rattus norvegicus, UniProt P23711); assay: HO enzymatic activity, rat brain microsomal fraction (CO formation from methemalbumin); assay type: biochemical
# T1 construct: brain microsomes were used as a source of HO-2; from tissue; host or cells: brain microsomal fraction of adult male Sprague-Dawley rats
# T1 sequence (P23711 1-315): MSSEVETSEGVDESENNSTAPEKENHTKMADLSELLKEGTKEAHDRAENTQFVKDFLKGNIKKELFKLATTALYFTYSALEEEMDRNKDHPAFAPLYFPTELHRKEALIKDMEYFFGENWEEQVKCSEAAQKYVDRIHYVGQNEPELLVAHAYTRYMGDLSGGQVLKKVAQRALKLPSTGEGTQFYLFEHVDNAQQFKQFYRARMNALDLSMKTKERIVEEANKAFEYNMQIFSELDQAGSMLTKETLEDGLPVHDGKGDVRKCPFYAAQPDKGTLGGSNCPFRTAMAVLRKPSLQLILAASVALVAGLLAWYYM
# HO-1 (rat spleen) = target: T2, HO-1 (rat spleen) (Rattus norvegicus, UniProt P06762); assay: HO enzymatic activity, rat spleen microsomal fraction (CO formation from methemalbumin); assay type: biochemical
# T2 construct: Spleen microsomes were used as a source of HO-1; from tissue; host or cells: spleen microsomal fraction of adult male Sprague-Dawley rats
# T2 sequence (P06762 1-289): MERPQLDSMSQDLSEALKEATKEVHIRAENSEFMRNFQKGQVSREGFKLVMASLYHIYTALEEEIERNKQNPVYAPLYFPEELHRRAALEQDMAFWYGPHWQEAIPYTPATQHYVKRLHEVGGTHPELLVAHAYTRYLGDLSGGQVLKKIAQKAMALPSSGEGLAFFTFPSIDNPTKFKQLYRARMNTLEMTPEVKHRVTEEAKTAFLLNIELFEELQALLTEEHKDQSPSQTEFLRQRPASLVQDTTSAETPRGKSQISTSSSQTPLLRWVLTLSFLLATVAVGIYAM
# [1] = system: HCT-116 colorectal carcinoma; assay: Colorectal carcinoma model HCT-116 in SCID mice, tumor growth delay; assay type: in vivo, Mouse (Mus musculus); male SCID; conditions: dosage of 60 mg/kg
# Description: (§1) Control groups received the vehicle alone.
# [2] = system: CD31-positive vessels in SKMEL-V+ tumors; assay: CD31 immunohistochemistry / microvessel density of SKMEL-V+ tumors; assay type: in vivo, Mouse (Mus musculus), male SCID; conditions: QC-56 particularly at 60 mg/kg
# Description: Cell cultures were maintained in 5% CO2/95% air at 37° C. SKMEL-V (human melanoma cells). SKMEL-V cells were derived from SKMEL-24 cells (ATCC) by overexpression of mouse VEGF. […] Tumors were either snap frozen in liquid nitrogen or fixed in 10% buffered formalin and embedded in paraffin. […] BD PharMingen, San Diego, Calif.). […] Sections were rehydrated in PBS and then blocked with 5% normal goat serum for 1 h. The sections were then incubated overnight at 4° C. with CD31 antibody diluted 1:25 in 3% BSA-PBS. […] Paraffin-embedded material was used for Harris' hematoxylin. Microvessel density was quantified using a method described by Weidner et al ([…], and Folkman […]. Med, 1991; 324:1-8). Briefly, randomly vascularized areas were selected (hot spots) under 40× field and 100× fields. Then a 400× field was used to count microvessels in each of these areas. Single endothelial cells or clusters of endothelial cells with or without lumen were considered to be individual vessels. […] All slides were examined blindly with no prior knowledge of the treatment status.
# cultured rat astroglia = conditions: cited from earlier work; for mitochondrial iron accumulation in astroglia transfected with human ho-1 gene: transient transfection
# [3] = assay type: in vivo; conditions: QC-56 60 mg/kg ip, 4 cycles; chemotherapy drugs ip
# Description: as §1
# [4] = system: vascular smooth muscle cells (VSMC); conditions: exposure of VSMC; cited from earlier work
# [5] = system: B16-BL6 cells (mouse melanoma); assay: Metastatic B16-BL6 melanoma model, lung surface metastases; assay type: in vivo; conditions: vehicle control: 101
# Description: B16-BL6 cells (mouse melanoma). B16-BL6 metastatic variant was derived from B16-F10. This cell variant was obtained from Dr. Linda D. Williams, Dept. of Cancer Biology, MD Anderson Cancer Center, Texas, USA. […] Cells were maintained at 37° C. in a humidified atmosphere (5% CO2, 95% air).
# as §1
# [6] = IC50 HO-2 (rat brain)/μM), CO formation from methemalbumin, mean ± SD of replicate experiments
# [7] = CO formation from methemalbumin, mean ± SD of replicate experiments, read-out: IC50 HO-1 (rat spleen/μM)
# [8] = IC50 HO-2 (rat brain)/μM), average ± SD of replicate experiments
# [9] = IC50 HO-1 (rat spleen/μM), average ± SD of replicate experiments
compound,measurement,setting,value
Cl.FC(F)(F)c1ccc(CCCCn2ccnc2)cc1,melting point,,110 to 111 °C
"Cl.OC(CCc1ccc(I)cc1)Cn1ccnc1 (racemic) [QC-74, (±)-1-(1H-Imidazol-1-yl)-4-(4-iodophenyl)-2-butanol hydrochloride]",melting point,,196 to 197 °C
same,IC50,HO-2 (rat brain); [6],2 ± 1 µM
"Cl.OC(CCc1ccccc1)Cn1ccnc1 (racemic) [QC-76, (±)-1-(1H-imidazol-1-yl)-4-phenyl-2-butanol hydrochloride]",melting point,,56 to 57 °C
same,IC50,HO-2 (rat brain); [6],16 ± 8 µM
same,IC50,HO-1 (rat spleen); [7],6 ± 1 µM
"Cl.OC(CCc1ccc(Br)cc1)Cn1ccnc1 (racemic) [QC-79, (±)-4-(4-Bromophenyl)-1-(1H-imidazol-1-yl)-2-butanol hydrochloride]",melting point,,174 to 175 °C
same,IC50,HO-2 (rat brain); [6],2.6 ± 0.5 µM
same,IC50,HO-1 (rat spleen); [7],0.1 ± 0.1 µM
"COc1ccc(OCC2CO[C@@](CCc3ccc(Cl)cc3)(Cn3ccnc3)O2)cc1.Cl (stereo in doubt) [QC-132, (2R,4S)-1-[2-[2-(4-Chlorophenyl)ethyl]-4-(4-methoxyphenoxymethyl)-[1,3]dioxolan-2-ylmethyl]-1H-imidazole hydrochloride]",melting point,,128 to 129 °C
"O=c1[nH]cc(F)c(=O)[nH]1 [5-FU, Fluorouracil, reference compound]",mortality,[1],induced mortality
"CN(C)/N=N/c1[nH]cnc1C(N)=O [Dacarbazine, reference compound]",vessel count / tumor vascularization (CD31),[2],minor effect
"Cl.Ic1ccc(CCC2(Cn3ccnc3)OCCO2)cc1 [QC-78, 1-((2-(2-(4-Iodophenyl)ethyl)-1,3-dioxolan-2-yl)methyl)-1H-imidazole hydrochloride]",melting point,,241 to 243 °C (dec.)
same,IC50,"HO-1 (rat spleen); IC50 HO-1 (rat spleen/μM), CO formation from methemalbumin, mean ± SD of replicate experiments",4 ± 1 µM
"Cl.O=C(Cn1ccnc1)C12CC3CC(CC(C3)C1)C2 [QC-82, 1-(adamantan-1-yl)-2-imidazol-1-yl-ethanone hydrochloride]",melting point,,261 to 262 °C
same,IC50,HO-2 (rat brain); [6],> 100 µM
same,IC50,HO-1 (rat spleen); [7],3 ± 1 µM
"Cl.Clc1ccc(CCCCn2ccnc2)cc1 [QC-105, 1-[4-(4-chlorophenyl)butyl]-1H-imidazole hydrochloride]",melting point,,121 to 122 °C
same,IC50,HO-1 (rat spleen); [7],0.5 ± 0.3 µM
"Cl.Clc1ccc(CC[C@@]2(Cn3ccnc3)OC[C@@H](CSc3ccc4ccccc4c3)O2)cc1 [QC-121, (2R,4S)-1-[2-[2-(4-Chlorophenyl)ethyl]-4-(naphthalen-2-ylsulfanylmethyl)-[1,3]dioxolan-2-ylmethyl]-1H-imidazole hydrochloride]",melting point,,156 to 157 °C
Cl.Clc1ccc(CC[C@@]2(Cn3ccnc3)OC[C@@H](COc3ccc(-c4ccccc4)cc3)O2)cc1 [QC-129],melting point,,162 to 163 °C
"Brc1ccc(CCCCn2ccnc2)cc1 [QC-199, 1-[4-(4-Bromo-phenyl)-butyl]-1H-imidazole hydrochloride]",IC50,HO-2 (rat brain); [8],6.7 ± 0.3 µM
same,IC50,HO-1 (rat spleen); [9],0.25 ± 0.02 µM
"O=C(CCc1ccc(O)cc1)Cn1ccnc1 [QC-206, 4-(4-Hydroxyphenyl)-1-(1H-imidazol-1-yl)butan-2-one hydrochloride]",IC50,"HO-2 (rat brain); average ± SD of replicate experiments, read-out: IC50 HO-2 (rat brain)/μM)",251 µM
same,IC50,"HO-1 (rat spleen); average ± SD of replicate experiments, read-out: IC50 HO-1 (rat spleen/μM)",382 µM
"O=C(CCn1ccnc1)c1ccccc1 [QC-242, 3-(1H-Imidazol-1-yl)-1-phenyl-propan-1-one hydrochloride]",IC50,HO-2 (rat brain); [8],> 100 µM
same,IC50,HO-1 (rat spleen); [9],79 µM
"c1ccc(C2(Cn3ccnc3)OCCO2)cc1 [QC-246, 1-(2-Phenyl-[1,3]dioxolan-2-ylmethyl)-1H-imidazole hydrochloride]",IC50,HO-2 (rat brain); [8],> 100 µM
same,IC50,HO-1 (rat spleen); [9],32 ± 3 µM
"c1ccc(C2(Cn3cncn3)OCCO2)cc1 [QC-254, 1-(2-Phenyl-[1,3]dioxolan-2-ylmethyl-1H-[1,2,4]triazole hydrochloride]",IC50,HO-2 (rat brain); [8],> 100 µM
same,IC50,HO-1 (rat spleen); [9],144 ± 15 µM
CCC1=C(C)c2cc3[n-]c(cc4[n-]c(cc5nc(cc1n2)C(C)=C5CC)c(C)c4CCC(=O)O)c(CCC(=O)O)c3C.[Cl-].[Cl-].[Sn+4] [SnMP],mitochondrial iron accumulation in astroglia transfected with human ho-1 gene,cultured rat astroglia,abolished the pathological accumulation of mitochondrial ^55Fe
"CC(=O)O[C@H]1C(=O)[C@@]2(C)[C@H]([C@H](OC(=O)c3ccccc3)[C@]3(O)C[C@H](OC(=O)[C@H](O)[C@@H](NC(=O)c4ccccc4)c4ccccc4)C(C)=C1C3(C)C)[C@]1(OC(C)=O)CO[C@@H]1C[C@@H]2O [Taxol™, paclitaxel, reference compound]",toxicity in the combination study,[3],induced some loss of body weights/mortality
same,HO-1 expression and activity,[4],dose and time dependent increase in HO-1 expression and activity
"N.N.[Cl][Pt][Cl] [cisplatin, cis-diaminedichloroplatinum(II), reference compound]",macroscopic nodules in the lungs (average),[5],60 nodules
C[C@@H]1C[C@H]2[C@@H]3CCC4=CC(=O)C=C[C@]4(C)[C@@]3(F)[C@@H](O)C[C@]2(C)[C@@]1(O)C(=O)CO [dexamethasone],"mitochondrial iron sequestration in astrocytes exposed to β-amyloid, TNFα or IL-1β",cultured rat astroglia; dexamethasone 50 μg/mL,significantly attenuated mitochondrial iron sequestration
same,mitochondrial iron accumulation in astroglia transfected with human ho-1 gene,cultured rat astroglia,abolished the pathological accumulation of mitochondrial ^55Fe
"(2R,4R)-2-[2-(4-phenyl)ethyl]-2-[(1H-imidazol-1-yl)methyl]-4-methyl-1,3-dioxolane hydrochloride [QC-35]",IC50,"HO-2 (rat brain); CO formation from methemalbumin, mean ± SD of replicate experiments, read-out: IC50 HO-2 (rat brain)/μM)",> 43 µM
same,IC50,HO-1 (rat spleen); [7],2 ± 1 µM
